Experimental data published in US9089586B2, “Levocarrimycin, pharmaceutical compositions, preparation methods and uses thereof” (SHENYANG TONGLIAN GROUP CO., LTD., priority 2010, dated 2015).
≈ marks a conversion by molar mass, not a printed value.

Tests used:
[1] = test system: Streptococcus pyogenes772; test: MIC against the infecting test organism (Table 3); type: cell-based, Streptococcus pyogenes
Streptococcus pneumonia3 = test: MIC against the infecting test organism (Table 3); type: cell-based, Streptococcus pneumonia
Staphylococcus aureus76 = test: MIC against the infecting test organism (Table 4); type: cell-based, Staphylococcus aureus
[2] = test system: chlamydia trachomatis serotype B/TW-5/OT; test: In vitro anti-chlamydia MIC, McCoy cells, immunofluorescent staining of inclusions; type: cell-based; details: Chlamydia trachomatis B/TW-5/OT in McCoy cells, 48 h
Gonococcus (10) = test: In vitro pharmacodynamics, clinical isolates, two-fold plate dilution; type: cell-based; details: 10 clinical isolates of Gonococcus
[3] = test system: chlamydia trachomatis serotype D/UW-3/Cx; test: In vitro anti-chlamydia MIC, McCoy cells, immunofluorescent staining of inclusions; type: cell-based; details: Chlamydia trachomatis D/UW-3/Cx in McCoy cells, 48 h
[4] = test system: Streptococcus pyogenes119; test: MIC against the infecting test organism (Table 3); type: cell-based, Streptococcus pyogenes
[5] = test system: Streptococcus pneumonia57; test: MIC against the infecting test organism (Table 3); type: cell-based, Streptococcus pneumonia
Enterococcus32 = test: MIC against the infecting test organism (Table 4); type: cell-based, Enterococcus
[6] = test system: Streptococcus pyogenes102; test: MIC against the infecting test organism (Table 3); type: cell-based, Streptococcus pyogenes
[7] = test system: chlamydia pneumoniae CWL-029; test: In vitro anti-chlamydia MIC, HEp-2 cells, immunofluorescent staining of inclusions; type: cell-based; details: Chlamydia pneumoniae CWL-029 in HEp-2 cells, 72 h
[8] = test system: urea plasma urealyticum (Uu); test: In vitro anti-urea plasma urealyticum MIC in U-PPLO; type: cell-based
Description: 1. Test method: add U-PPLO 0.8 ml in sterile 12-pore cell culture plate (add 0.9 ml in bacteria liquid control pore and 1.0 ml in culture medium control pores).
3. Divide into 3 groups (100 μg/ml, 10 μg/ml and 1 μg/ml antibiotic stocksolution), Add experimental antibiotics (levocarrimycin in example 6 of the present invention, acetyl spiramycin, erythrocin and azithromycin) in each experimental pores with sterile Tip according to double degradation concentration gradient: 100 μl, 50 μl, 25 μl and 12.5 μl.
4. Blend the above pores evenly, seal the culture plate with an adhesive tape and then culture in 37° C. incubator.
5. Abserve and record the growth of Uu on 17-24 h after the test.

Staphylococcus aureus16 [9] = test: MIC against the infecting test organism (Table 4); type: cell-based, Staphylococcus aureus
[10] = test system: Streptococcus pneumonia57; test: In vivo pharmacodynamic: mice abdominal cavity infected, half protective dose; details: 168 h; mice infected with Streptococcus pneumonia57, challenging dose 8.8 × 10^4 CFU/0.5 ml/mouse, intragastric administration, fatality within seven days
Description: (§1) Test method: infectious bacteria liquid preparation: put the bacteria liquid stored in the −80° C. refrigerator into the room for about 1 h at room temperature, and respectively draw 0.1 ml bacteria liquid of streptococcus pneumonia, streptococcus pyogenes and enterococcus into 2 ml MH soup (add 10% inactivated horse serum); inoculate the 2 ml MH soup with 0.1 ml bacteria liquid of staphylococcus aureus according to the above method, place the liquid into 37° C. incubator for 18 h to get the original bacteria liquid, dilute the original bacteria liquid with 5% gastric mucin, take 100% lethal bacteria amount if animal gets infected as infectious bacteria liquid.
(§2) Oral administration is planned for clinical medication of levocarrimycin, thus intragastric administration is selected for levocarrimycin test. After intraperitoneal injection of 0.5 ml lethal bacterial amount to the mice' abdominal cavity, the mice appear following symptom, such as reduced activity, repose, hair became loose, and so on. Clyster with 0.2 ml for every mouse after infection 0.5-6 h, there is no adverse reaction. Observe animal fatality within seven days and calculate the half protective dose (EDO of drugs for infected mice and compare the protective effect of drugs througe Bliss order.

Staphylococcus aureus16 [11] = test: as above; details: 168 h; mice infected with Staphylococcus aureus16, challenging dose 5.2 × 10^3 CFU/0.5 ml/mouse, intragastric administration, fatality within seven days
Description: as §1, §2

Staphylococcus aureus12 = test: as above; details: 168 h; mice infected with Staphylococcus aureus12, challenging dose 4.8 × 10^4 CFU/0.5 ml/mouse, intragastric administration, fatality within seven days
Description: as §1, §2

[12] = test system: Streptococcus pyogenes119; test: as above; details: 168 h; mice infected with Streptococcus pyogenes119, challenging dose 4.9 × 10^4 CFU/0.5 ml/mouse, intragastric administration, fatality within seven days
Description: as §1, §2

Molecule: Acetyl spiramycin
- MIC [1]: 0.25 µg/mL
- MIC (Streptococcus pneumonia3): 0.5 µg/mL
- MIC (Staphylococcus aureus76): 1 µg/mL
- Minimal inhibitory concentration (MIC) [2]: 4 µg/mL
- MIC scope (Gonococcus (10)): 0.12 to 64 µg/mL
- Minimal inhibitory concentration (MIC) [3]: 2 µg/mL
- MIC [4]: 0.5 µg/mL
- MIC [5]: 1 µg/mL
- MIC (Enterococcus32): 1 µg/mL
- MIC [6]: 0.5 µg/mL
- Minimal inhibitory concentration (MIC) [7]: 0.5 µg/mL
- MIC of anti-urea plasma urealyticum strains ([8]; final MIC (24 h), determined 4 times, 10^3 CCU/ml): 0.5 µg/mL
- MIC (Staphylococcus aureus16 [9]): 1 µg/mL

Molecule: CC[C@H]1OC(=O)[C@H](C)[C@@H](O[C@H]2C[C@@](C)(OC)[C@@H](O)[C@H](C)O2)[C@H](C)[C@@H](O[C@@H]2O[C@H](C)C[C@H](N(C)C)[C@H]2O)[C@](C)(O)C[C@@H](C)C(=O)[C@H](C)[C@@H](O)[C@]1(C)O [Erythrocin]
- MIC (Gonococcus (10)): 0.12 to 64 µg/mL (≈ 0.164 to 87.2 µM)
- anti-Uu function ([8]; verbal comparison of the four antibiotics): the worst

Molecule: CC[C@H]1OC(=O)[C@H](C)[C@@H](O[C@H]2C[C@@](C)(OC)[C@@H](O)[C@H](C)O2)[C@H](C)[C@@H](O[C@@H]2O[C@H](C)C[C@H](N(C)C)[C@H]2O)[C@](C)(O)C[C@@H](C)CN(C)[C@H](C)[C@@H](O)[C@]1(C)O [Azithromycin]
- ED50 [10]: 19.7 mg/kg
- ED50 (Staphylococcus aureus16 [11]): 75.8 mg/kg
- ED50 (Staphylococcus aureus12): 217 mg/kg
- ED50 [12]: 99 mg/kg
- MIC (Gonococcus (10)): 0.12 to 64 µg/mL (≈ 0.16 to 85.4 µM)
- MIC ([8]; final MIC (24 h), determined 4 times, 10^3 CCU/ml, read-out: MIC of anti-urea plasma urealyticum strains): 0.025 to 0.125 µg/mL
